Where a name gives a salt, the structure may show the parent alone.
How the values were obtained:
[1] = biological target: tubulin (colchicine site) (Bos taurus, UniProt P81947+Q6B856); test: Inhibition of [3H]colchicine binding to tubulin; parameters: species or system bovine; conditions: read-out: colchicine binding inhibition (%)
OVCAR-8 = test: Cytotoxic activity, OVCAR-8 cells; format: cell-based; conditions: Homo sapiens, OVCAR-8, 96 h, read-out: EC50 OVCAR-8
NCI/ADR-RES = test: Cytotoxic activity, NCI/ADR-RES cells; format: cell-based; conditions: Homo sapiens, 96 h, read-out: EC50 NCI/ADR-RES
OVCAR-8 cells = test: Cell cycle analysis by FACS; format: cell-based, human; conditions: OVCAR-8, 1.0 μM, 24 h, P < 0.05

Sequence of tubulin (colchicine site) (P81947 whole entry): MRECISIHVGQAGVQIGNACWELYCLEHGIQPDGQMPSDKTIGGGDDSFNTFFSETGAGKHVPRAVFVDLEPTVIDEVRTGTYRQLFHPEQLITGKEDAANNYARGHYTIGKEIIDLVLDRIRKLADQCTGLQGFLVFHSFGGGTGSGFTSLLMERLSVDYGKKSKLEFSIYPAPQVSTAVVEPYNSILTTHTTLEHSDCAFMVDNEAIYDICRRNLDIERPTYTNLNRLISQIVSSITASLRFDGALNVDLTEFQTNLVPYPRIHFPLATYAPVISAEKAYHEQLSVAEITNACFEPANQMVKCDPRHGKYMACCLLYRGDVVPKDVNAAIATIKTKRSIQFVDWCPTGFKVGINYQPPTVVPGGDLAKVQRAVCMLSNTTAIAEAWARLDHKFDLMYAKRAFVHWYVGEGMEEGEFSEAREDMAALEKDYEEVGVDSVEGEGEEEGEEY
Sequence of tubulin (colchicine site) (Q6B856 whole entry): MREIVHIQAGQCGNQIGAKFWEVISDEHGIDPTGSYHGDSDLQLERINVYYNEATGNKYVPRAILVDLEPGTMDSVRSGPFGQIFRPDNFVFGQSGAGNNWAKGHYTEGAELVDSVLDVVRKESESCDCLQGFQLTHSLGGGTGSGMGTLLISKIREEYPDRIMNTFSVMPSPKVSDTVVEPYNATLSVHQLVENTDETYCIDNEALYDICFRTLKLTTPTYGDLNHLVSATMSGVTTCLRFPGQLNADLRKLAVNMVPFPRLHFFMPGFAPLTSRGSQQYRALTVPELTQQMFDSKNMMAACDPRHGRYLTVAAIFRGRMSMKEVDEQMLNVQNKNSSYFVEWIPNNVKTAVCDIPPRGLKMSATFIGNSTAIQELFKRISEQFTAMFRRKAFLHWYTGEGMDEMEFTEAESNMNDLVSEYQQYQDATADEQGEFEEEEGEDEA

SMILES | inhibition at 5 µM [1] [%] | EC50 (OVCAR-8) [nM] | EC50 (NCI/ADR-RES) [nM] | proportion of cells arrested at G2/M compared to control cells (OVCAR-8 cells)
c1ccc(-c2cccc(Nc3ncnc4cc5c(cc34)OCCO5)c2)nc1 [Compound 6, (7,8-Dihydro[1,4]dioxino[2,3-g]quinazolin-4-yl)-[3′-(pyridin-yl-2″-yl)phenyl]amine Hydrochloride] | 25 ± 4 |  |  | 
CC(=O)O[C@H]1C(=O)[C@@]2(C)[C@H]([C@H](OC(=O)c3ccccc3)[C@]3(O)C[C@H](OC(=O)[C@H](O)[C@@H](NC(=O)c4ccccc4)c4ccccc4)C(C)=C1C3(C)C)[C@]1(OC(C)=O)CO[C@@H]1C[C@@H]2O [paclitaxel] |  | 5.5 ± 0.7 | 5000 | 
COc1ccc(/C=C\c2cc(OC)c(OC)c(OC)c2)cc1O [CA-4, combretastatin A-4] |  | 18 ± 4 | 13 ± 4 | 
c1cc(Nc2ncnc3cc4c(cc23)OCCO4)cc(-c2ccc[nH]2)c1 [Compound 9, (7,8-Dihydro[1,4]dioxino[2,3-g]quinazolin-4-yl)-[3′-(pyrrol-2″-yl)phenyl]amine Hydrochloride] | 33 ± 7 |  |  | 
c1ccc(-c2cccc(Nc3ncnc4cc5c(cc34)OCCO5)c2)cc1 [Compound 2] | 41 ± 7 |  | 350 ± 80 | 
Cl.c1cc(Nc2ncnc3cc4c(cc23)OCCO4)cc(-c2cccs2)c1 [Compound 5, (7,8-Dihydro[1,4]dioxino[2,3-g]quinazolin-4-yl)-[3′-(thien-2″-yl)phenyl]amine Hydrochloride] | 75 ± 0.8 |  |  | significantly increased
c1ccc(-c2cccc(Nc3ncnc4cc5c(cc34)OCCCO5)c2)cc1 [Compound 3] | 34 ± 1 |  |  | 
c1ccc(-c2cccc(Nc3ncnc4cc5c(cc34)OCO5)c2)cc1 [Compound 1] | 72 ± 0.4 |  |  | significantly increased

— paper PMC4086859 (Journal of medicinal chemistry, 2014)
